Measurements from patent US9309263B2, “Fused multi-cyclic sulfone compounds as inhibitors of beta-secretase and methods of use thereof” (AMGEN INC., priority 2013, dated 2016).
pIC50: −log10 of the molar value. Read-outs that look alike come from different tables or passages of the source.

Columns and labels:
[1] = target: Beta Secretase enzyme (BACE) (Homo sapiens, UniProt P56817); experiment: In vitro enzymatic BACE FRET assay; assay type: biochemical; conditions: read-out: BACE1 FRET assay IC50
In short: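 Cleavage of a quenched 50 nM FRET peptide substrate, read as fluorescence (excitation 488 nm, […]) after 1 h and Tris quench to neutrality. Buffer: 0.05 M acetate pH 4.2 with 10% DMSO and 100 uM genapol. Inhibitor dilutions were pre-incubated 1 h with 0.2 nM enzyme.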

Cathepsin D (Cat D) = Cathepsin D (Cat D) (Homo sapiens, UniProt P07339); experiment: In vitro enzymatic Cathepsin D (Cat D) FRET assay; assay type: biochemical
In short: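 FRET peptide substrate (20 nM) is cleaved by CHO-derived recombinant enzyme (9 nM) for 1 h after a 1 h inhibitor pre-incubation, at pH 3.5 in citrate buffer with 5 mM CHAPS and 10% DMSO. Tris addition ends the reaction; fluorescence measured at 500 nm excitation, 580 nm emission.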

[2] = test system: Aβ 40 in conditioned medium of cells stably expressing Amyloid Precursor Protein (APP); experiment: In vitro BACE cell-based assay (Aβ 40 sandwich ELISA); conditions: Homo sapiens, HEK293
In short: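 Aβ40 in conditioned medium measured by pAb40/biotin-6E10 sandwich ELISA with time-resolved europium fluorescence, after 24 h exposure of stable APP cells to compounds (10-point series starting 100 μM or 10 μM; 0.1% DMSO). IC50 fitted from percent of control against concentration.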

[3] = average IC50, in vitro enzymatic BACE FRET assay
[4] = Cathepsin D FRET assay, read-out: CatD IC50
[5] = average IC50, HEK cell assay, Aβ 40 readout
[6] = text summary referring to data in Table 2

Cathepsin D (Cat D), sequence (P07339 65-412, species assumed): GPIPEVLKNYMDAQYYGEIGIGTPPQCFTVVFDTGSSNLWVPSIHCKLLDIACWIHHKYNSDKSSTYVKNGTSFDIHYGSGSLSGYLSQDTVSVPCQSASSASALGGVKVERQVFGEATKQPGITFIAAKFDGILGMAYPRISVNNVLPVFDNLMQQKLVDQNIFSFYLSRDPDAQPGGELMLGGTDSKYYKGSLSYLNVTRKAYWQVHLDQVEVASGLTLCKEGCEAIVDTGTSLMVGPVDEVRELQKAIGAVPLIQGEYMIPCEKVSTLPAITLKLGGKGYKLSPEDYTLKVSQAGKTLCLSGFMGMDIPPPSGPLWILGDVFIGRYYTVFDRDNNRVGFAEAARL
Beta Secretase enzyme (BACE), sequence (P56817 46-501): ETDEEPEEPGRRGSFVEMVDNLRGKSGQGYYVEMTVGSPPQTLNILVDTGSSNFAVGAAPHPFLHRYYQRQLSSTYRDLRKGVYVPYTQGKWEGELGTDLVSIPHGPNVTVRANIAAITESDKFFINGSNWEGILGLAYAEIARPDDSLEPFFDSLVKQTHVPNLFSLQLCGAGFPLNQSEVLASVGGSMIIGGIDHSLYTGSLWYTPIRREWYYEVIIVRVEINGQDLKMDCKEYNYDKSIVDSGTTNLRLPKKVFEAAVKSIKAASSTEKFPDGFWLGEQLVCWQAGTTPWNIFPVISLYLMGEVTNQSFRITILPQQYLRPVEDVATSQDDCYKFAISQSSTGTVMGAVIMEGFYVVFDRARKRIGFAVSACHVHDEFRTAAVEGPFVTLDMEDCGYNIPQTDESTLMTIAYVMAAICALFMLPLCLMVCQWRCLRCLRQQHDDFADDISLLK

Structure (SMILES)	pIC50 [1, 3]	pIC50 (Cathepsin D (Cat D); [4])	pIC50 [2, 5]	pIC50 ([1]; average IC50)	pIC50 (Cathepsin D (Cat D); read-out: CatD IC50)	pIC50 ([2]; HEK cell, average IC50)	pIC50 (Cathepsin D (Cat D); [6])	pIC50 ([2]; HEK cells, average IC50)
CC1(C)C(N)=N[C@]2(CF)c3cc(NC(=O)c4cnc(C(F)(F)F)cn4)ccc3OCC[C@@H]2S1(=O)=O [Example 120, N-((4aS,11bS)-2-amino-11b-(fluoromethyl)-3,3-dimethyl-4,4-dioxido-4a,5,6,11b-tetrahydro-3H-[1]benzoxepino[4,5-b][1,4]thiazin-10-yl)-5-(trifluoromethyl)-2-pyrazinecarboxamide]	7.09	3.12	6.83					
Cc1cc(OC(F)F)cnc1C(=O)Nc1ccc2c(c1)[C@@]1(C)N=C(N)C(C)(C)S(=O)(=O)[C@H]1CCC2 [Example 39, N-((4aS,11bR)-2-amino-3,3,11b-trimethyl-4,4-dioxido-3,4a,5,6,7,11b-hexahydrobenzo[3,4]cyclohepta[1,2-b][1,4]thiazin-10-yl)-5-(difluoromethoxy)-3-methyl-2-pyridinecarboxamide]				6.85	< 3.40	7.66		
CC1(C)C(N)=N[C@]2(C)c3cc(Nc4ncccc4C#N)ccc3OCC[C@H]2S1(=O)=O [Example 7, 2-(((4aR,11bR)-2-amino-3,3,11b-trimethyl-4,4-dioxido-4a,5,6,11b-tetrahydro-3H-[1]benzoxepino[4,5-b][1,4]thiazin-10-yl)amino)-3-pyridinecarbonitrile]				6.94	3.60	6.91		
CC1(C)C(N)=N[C@]2(CF)c3cc(Nc4nccc5cc(Cl)cnc45)ccc3OCC[C@H]2S1(=O)=O [Example 148, (4aR,11bS)-N^~10^~-(3-chloro-1,7-naphthyridin-8-yl)-11b-(fluoromethyl)-3,3-dimethyl-4a,5,6,11b-tetrahydro-3H-[1]benzoxepino[4,5-b][1,4]thiazine-2,10-diamine 4,4-dioxide]	7.92	3.15	7.03					
CC1(C)C(N)=N[C@]2(C)c3cc(NC(=O)c4ncc(C(F)(F)F)cc4Cl)ccc3OCC[C@H]2S1(=O)=O [Example 25, N-((4aR,11bR)-2-amino-3,3,11b-trimethyl-4,4-dioxido-4a,5,6,11b-tetrahydro-3H-[1]benzoxepino[4,5-b][1,4]thiazin-10-yl)-3-chloro-5-(trifluoromethyl)-2-pyridinecarboxamide]				8.15	2.45	8.70	< 2.92	
CC1(C)C(N)=N[C@]2(C)c3cc(NC(=O)c4ccc(C(F)(F)F)cn4)ccc3OCC[C@H]2S1(=O)=O [Example 165, N-((4aR,11bR)-2-amino-3,3,11b-trimethyl-4,4-dioxido-4a,5,6,11b-tetrahydro-3H-[1]benzoxepino[4,5-b][1,4]thiazin-10-yl)-5-(trifluoromethyl)-2-pyridinecarboxamide]				8.22	2.97			8.40
COc1cnc2c(Nc3ccc4c(c3)[C@@]3(C)N=C(N)C(C)(C)S(=O)(=O)[C@@H]3CCO4)ncnc2c1 [Example 162, (4aR,11bR)-N^~10^~-(7-methoxypyrido[3,2-d]pyrimidin-4-yl)-3,3,11b-trimethyl-4a,5,6,11b-tetrahydro-3H-[1]benzoxepino[4,5-b][1,4]thiazine-2,10-diamine 4,4-dioxide]				8.15	3.21			8.05
Cc1cc(Cl)cnc1C(=O)Nc1ccc2c(c1)[C@@]1(C)N=C(N)C(C)(C)S(=O)(=O)[C@H]1CCC2 [Example 9, N-((4a8,11bR)-2-amino-3,3,11b-trimethyl-4,4-dioxido-3,4a,5,6,7,11b-hexahydrobenzo[3,4]cyclohepta[1,2-b][1,4]thiazin-10-yl)-5-chloro-3-methyl-2-pyridinecarboxamide]				7.68	3.12	7.70		
C[C@H]1C[C@@H]2[C@](C)(N=C(N)C(C)(C)S2(=O)=O)c2cc(Nc3nccc4nc(O)cnc34)ccc2O1 [Example 136, 5-(((4aR,6S,11bR)-2-amino-3,3,6,11b-tetramethyl-4,4-dioxido-4a,5,6,11b-tetrahydro-3H-[1]benzoxepino[4,5-b][1,4]thiazin-10-yl)amino)pyrido[3,4-b]pyrazin-2(1H)-one]	7.60	3.61	7.80					
Cc1cc(C(F)F)cnc1C(=O)Nc1ccc2c(c1)[C@@]1(C)N=C(N)C(C)(C)S(=O)(=O)[C@H]1CCC2 [Example 35, N-((4aS,11bR)-2-amino-3,3,11b-trimethyl-4,4-dioxido-3,4a,5,6,7,11b-hexahydrobenzo[3,4]cyclohepta[1,2-b][1,4]thiazin-10-yl)-5-(difluoromethyl)-3-methyl-2-pyridinecarboxamide]				7.31	< 3.40	7.64		
COc1cnc(C(=O)Nc2ccc3c(c2)[C@@]2(C)N=C(N)C(C)(C)S(=O)(=O)[C@@H]2CC(C)(C)O3)c(C)n1 [Example 101, N-((4aR,11bR)-2-amino-3,3,6,6,11b-pentamethyl-4,4-dioxido-4a,5,6,11b-tetrahydro-3H-[1]benzoxepino[4,5-b][1,4]thiazin-10-yl)-5-methoxy-3-methyl-2-pyrazinecarboxamide]	7.54	3.08	7.72					
Cc1cc(OC(F)F)cnc1C(=O)Nc1ccc2c(c1)[C@@]1(C)N=C(N)C(C)(C)S(=O)(=O)[C@]1(F)CCO2 [Example 95, N-((4aR,11bR)-2-amino-4a-fluoro-3,3,11b-trimethyl-4,4-dioxido-4a,5,6,11b-tetrahydro-3H-[1]benzoxepino[4,5-b][1,4]thiazin-10-yl)-5-(difluoromethoxy)-3-methyl-2-pyridinecarboxamide]	7.85	3.61	7.21					
Cc1cc(Cl)cnc1C(=O)Nc1cnc2c(c1)[C@@]1(C)N=C(N)C3(CCC3)S(=O)(=O)[C@H]1CCO2 [Example 58, N-((4a′S,11b′R)-2′-amino-11b′-methyl-4′,4′-dioxido-4a′,5′,6′,11b′-tetrahydrospiro[cyclobutane-1,3′-pyrido[3′,2′:6,7]oxepino[4,5-b][1,4]thiazin]-10′-yl)-5-chloro-3-methyl-2-pyridinecarboxamide]				7.85	3.18	7.96		
CC1(C)C(N)=N[C@]2(CF)c3cc(NC(=O)c4ccc(OC(F)F)cn4)ccc3OCC[C@@H]2S1(=O)=O [Example 122, N-((4aS,11bS)-2-amino-11b-(fluoromethyl)-3,3-dimethyl-4,4-dioxido-4a,5,6,11b-tetrahydro-3H-[1]benzoxepino[4,5-b][1,4]thiazin-10-yl)-5-(difluoromethoxy)-2-pyridinecarboxamide]	7.96	2.99	7.89					
Cc1cc(C#N)cnc1C(=O)Nc1cnc2c(c1)[C@@]1(C)N=C(N)C3(CCC3)S(=O)(=O)[C@@H]1CCO2 [Example 62, N-((4a′R,11b′R)-2′-amino-11b′-methyl-4′,4′-dioxido-4a′,5′,6′,11b′-tetrahydrospiro[cyclobutane-1,3′-pyrido[3′,2′:6,7]oxepino[4,5-b][1,4]thiazin]-10′-yl)-5-cyano-3-methyl-2-pyridinecarboxamide]				7.82	< 3.40	7.22		
C[C@H]1C[C@@H]2[C@](C)(N=C(N)C(C)(C)S2(=O)=O)c2cc(NC(=O)c3cnc(OCc4ncco4)cn3)ccc2O1 [Example 76, N-((4aR,6S,11bR)-2-amino-3,3,6,11b-tetramethyl-4,4-dioxido-4a,5,6,11b-tetrahydro-3H-[1]benzoxepino[4,5-b][1,4]thiazin-10-yl)-5-(1,3-oxazol-2-ylmethoxy)-2-pyrazinecarboxamide]				8.70	2.98	9.05	< 2.92	
Cc1cc(Cl)cnc1C(=O)Nc1ccc2c(c1)[C@@]1(C)N=C(N)C(C)(C)S(=O)(=O)[C@H]1C[C@H](C)O2 [Example 183, N-((4aS,6S,11bR)-2-amino-3,3,6,11b-tetramethyl-4,4-dioxido-4a,5,6,11b-tetrahydro-3H-[1]benzoxepino[4,5-b][1,4]thiazin-10-yl)-5-chloro-3-methyl-2-pyridinecarboxamide]				8.05	4.36			8.52
Cc1cc(C(F)(F)F)cnc1C(=O)Nc1ccc2c(c1)[C@@]1(C)N=C(N)C(C)(C)S(=O)(=O)[C@]1(F)CCO2 [Example 93, N-((4aR,11bR)-2-amino-4a-fluoro-3,3,11b-trimethyl-4,4-dioxido-4a,5,6,11b-tetrahydro-3H-[1]benzoxepino[4,5-b][1,4]thiazin-10-yl)-3-methyl-5-(trifluoromethyl)-2-pyridinecarboxamide]	7.96	3.29	7.27					
Cc1cc(Cl)cnc1C(=O)Nc1cnc2c(c1)[C@@]1(C)N=C(N)C(C)(C)S(=O)(=O)[C@@H]1CCO2 [Example 18, N-((4aR,11bR)-2-amino-3,3,11b-trimethyl-4,4-dioxido-4a,5,6,11b-tetrahydro-3H-pyrido[3′,2′:6,7]oxepino[4,5-b][1,4]thiazin-10-yl)-5-chloro-3-methyl-2-pyridinecarboxamide]				8.22	2.89	7.85	< 2.92	
